Patent US7615244B2, “Glycopeptide and peptide having a kokumi taste imparting function, and method of imparting the kokumi taste to foods” (Ajinomoto Co., Inc., priority 2003, dated 2009)
Marks after values point to notes of the source that are not given here.

Legend:
[1] = Organoleptic evaluation of beef extract solution, paired comparison test; parameters: key to Kokumi taste vs control (mark): Δ: Equal or inferior in the kokumi taste to the control; O: Stronger in the kokumi taste than the control; OO: Remarkably stronger in the kokumi taste than the control; settings: for Kokumi taste vs control (mark): 14 panelists
Description: In order to verify a taste improving function for a commercially available beef extract (manufactured by Bordon), the three glycopeptides and peptide were each added in an amount of 10 ppb by weight to a beef extract solution formulated according to the mixing ratio shown in the following Table 6, and then an organoleptic evaluation was performed in the same manner as in Example 1. Each resulting solution was subjected to organoleptic evaluation by 16 taste panelists according to a paired comparison test, using the non-added beef extract solution as the control. […]
In order to verify a taste improving function for a commercially available beef extract (manufactured by Bordon) in the same manner as in the organoleptic evaluation of Example 1, the glycopeptides and peptides listed in the following Table 15, were each added in an amount of 10 ppb, 1 ppm, or 100 ppm by weight to beef extract solutions formulated according to the mixing ratio shown in Table 6 above. Each resulting solution was subjected to organoleptic evaluation by 14 taste panelists according to a paired comparison test, using the non-added beef extract solution as the control.

[2] = Organoleptic evaluation of Mentsuyu, paired comparison test; settings: added 1 ppb by weight; vs non-added; n = 16
Description: In order to verify a taste improving function for “Mentsuyu” (a soup for Japanese noodle) in the same manner as in the organoleptic evaluation of Example 1, the three glycopeptides and peptide were each added in an amount of 1 ppb by weight to Mentsuyu prepared according to the formulation shown in the following Table 2. Each resulting solution was subjected to organoleptic evaluation by 16 taste panelists according to a paired comparison test, using non-added Mentsuyu as the control.
In order to verify the taste improving function of a liquid comprising enzymatically decomposed wheat gluten, that is, a seasoning containing the three glycopeptides and peptide, for Mentsuyu, the seasoning comprising enzymatically decomposed wheat gluten (that is, the decolorized liquid of Example 1 from which the activated carbon had been removed) was added in an amount of 0.1% by volume to Mentsuyu prepared according to the formulation shown in Table 2, and then an organoleptic evaluation was performed in the same manner as in Example 1. Organoleptic evaluation was carried out by 20 taste panelists according to a paired comparison test, using the non-added Mentsuyu as the control.

[3] = Organoleptic evaluation of cheese sauce, paired comparison test; settings: added 1 ppm by weight; vs non-added; n = 14
Description: In order to verify a taste improving function for cheese sauce, the three glycopeptides and peptide were each added in an amount of 1 ppm by weight to a cheese sauce prepared according to the formulation shown in the following Table 4, and then an organoleptic evaluation was performed in the same manner as in Example 1. Each of the sauces added with one of the three glycopeptides and peptide was subjected to organoleptic evaluation by 14 taste panelists according to a paired comparison test, using non-added cheese sauce as the control.
In order to verify the taste improving function of the liquid comprising enzymatically decomposed wheat gluten, that is, a seasoning containing the three glycopeptides and peptide, for cheese sauce, the seasoning comprising enzymatically decomposed wheat gluten (that is, the powdered seasoning of Example 1 formed from the decolorized liquid from which the activated carbon had been removed) was added in an amount of 0.05% by weight to a cheese sauce prepared according to the formulation shown in Table 4, and then an organoleptic evaluation was performed in the same manner as in Example 1. Organoleptic evaluation was carried out by 20 taste panelists according to a paired comparison test, using the non-added cheese sauce as the control.

[4] = Organoleptic evaluation of chicken consommé soup, paired comparison test by taste panelists; settings: for Panelists choosing the sample as the one with a stronger kokumi taste: vs non-added soup, n = 16
Description: 2 g of a commercially available chicken consommé soup (manufactured by Ajinomoto Co., Inc.) was added to 100 mL of water to prepare a chicken consommé soup, and then each of the fractions was added to the chicken consommé soup. […] These two fractions were each again fractionated by reversed phase HPLC (“Carbon-500” manufactured by Tosoh Corporation). The following conditions were used to obtain two peaks at 44.8 minutes and 46.6 minutes. For the fractionation, two solvents A and B were used. Solvent A was a 0.05% by volume trifluoroacetic acid (TFA) aqueous solution, and Solvent B was a 0.05% by volume TFA 50% by volume acetonitrile aqueous solution. The column was equilibrated with Solvent A. After injecting a sample, the proportion of Solvent B was increased linearly to 100% in 167 min. The fractionated two peaks were analyzed with an LC-MS/MS (liquid chromatography-tandem mass spectrometry), to confirm that the former peak had fragments, that is, [M+H]^+=m/z 1640, 1494, 1478, 1362, 1332, 1316, 1200, 1184, 1038, 876, 819, 673, and 470, and that the latter peak had fragments, that is, [M+H]^+=m/z 1478, 1346, 1332, 1316, 1200, 1184, 1038, 876, 819, 673, and 470. Further, the former and latter peaks were analyzed by some known methods of analysis such as NMR, a peptide sequencer, an enzymatic decomposition treatment, and the like (R.Takahashi, “Biochemical Experiment Methods 23: Method for Studying Glycoprotein Sugar Chain,” published by Gakkai Shuppan Center, 1989), to confirm that the peaks were due to the glycopeptides having the structures represented by Sequence formulas (I) (SEQ ID NO: 1) and (II) (SEQ ID NO: 1), respectively.
In order to confirm the kokumi taste imparting function and the threshold value of the glycopeptides and the peptide represented by Sequence formulas (I) to (III) (SEQ ID NO: 1) (hereinafter, the glycopeptides and the peptide represented by Sequence formulas (I) to (III) may also be referred to as Glycopeptide I, Glycopeptide II, and Peptide III, respectively), Glycopeptide I and Glycopeptide II were each added to a chicken consommé soup in such that the concentration thereof would be 0.1 ppb to 1.0 ppm by weight upon eating, and Peptide III was added to the chicken consommé soup in such that the concentration thereof would be 0.1 ppb to 100 ppm by weight upon eating. As a control, a non-added chicken consommé soup was prepared. For each of the three glycopeptides and peptide, organoleptic evaluation was carried out by 16 taste panelists according to a paired comparison test (the panelists should choose one with a stronger kokumi taste). In the above organoleptic evaluation, there was a significant difference in the effect caused by adding Glycopeptide I or II or Peptide III in the case where the concentration thereof was 1 ppb by weight or more upon eating. Therefore, the lower limit of the threshold value was set to 1 ppb by weight.

Substance	Kokumi taste vs control (mark) ([1]; added 1 ppm by weight)	Kokumi taste vs control (mark) ([1]; added 10 ppb by weight)	Kokumi taste vs control (mark) ([1]; added 100 ppm by weight)	Stronger kokumi taste (panelists) [2]	Stronger kokumi taste (panelists) ([1]; added 10 ppb by weight, vs non-added, n = 16)	Stronger kokumi taste (panelists) [3]	Panelists choosing the sample as the one with a stronger kokumi taste ([4]; amount added 0.1 ppb)	Panelists choosing the sample as the one with a stronger kokumi taste ([4]; amount added 1.0 ppb)	Panelists choosing the sample as the one with a stronger kokumi taste ([4]; amount added 1.0 ppm)	Panelists choosing the sample as the one with a stronger kokumi taste ([4]; amount added 10 ppb)	Panelists choosing the sample as the one with a stronger kokumi taste ([4]; amount added 100 ppm)	Lower limit of the threshold value (kokumi taste imparting function) ([4]; concentration upon eating giving a significant difference vs non-added soup)
Asn-His	◯	◯	◯◯	–	–	–	–	–	–	–	–	–
Asn-His-Thr	◯◯	◯	◯◯	–	–	–	–	–	–	–	–	–
His-Ser [reference compound]	Δ	Δ	Δ	–	–	–	–	–	–	–	–	–
Val-Asn [reference compound]	Δ	Δ	Δ	–	–	–	–	–	–	–	–	–
Val-Asn-His	◯◯	◯	◯◯	–	–	–	–	–	–	–	–	–
Val-Asn-His-Thr (VNHT; printed: Val-Asn-His-Thr) [Peptide III]	◯◯	◯◯	◯◯	13*	13*	12*	9	13*	16***	14**	16***	1 ppb by weight
Val-Gln [reference compound]	Δ	Δ	Δ	–	–	–	–	–	–	–	–	–
